The source of these data is article PMC9635472, “Design, synthesis, and biological evaluation of novel ciprofloxacin derivatives as potential anticancer agents targeting topoisomerase II enzyme” (Journal of Enzyme Inhibition and Medicinal Chemistry, 2022).

A word on the melting point: it is the temperature, or range, at which the solid turns liquid. As usually defined, the IC50 is the concentration needed to halve the response being measured.

The test system of data set [1] is Human bladder cancer (T-24) cell line. The data set can be described thus: MTT cell viability assay, T-24 cells. In kind it is cell-based. Conditions: bladder cancer cell line T-24, treatment for 24 h (table title), means of three experiments, read-out: IC50 (μM* ± SD) T-24. How it is done: (§1) Human bladder cancer (T-24) and human prostate carcinoma (PC-3) cell lines were obtained from American Type Culture Collection (ATCC; Manassas, VA USA). Cells were maintained in Dulbecco’s modified Eagle medium with 10% foetal bovine serum at 37 °C and 5% CO2. All the operations were carried out under strict aseptic conditions. The culture medium was removed to a centrifuge tube containing 9.0 ml complete culture medium and spanned at approximately 125 × g for 5 to 7 min. The cell layer was rinsed with 0.25% (w/v) trypsin- […] EDTA solution by which all traces of serum-containing inhibitor were removed. Trypsin EDTA solution 2.0 to 3.0 ml was added to a flask and cells were monitored under an inverted microscope until the cell layer was dispersed (usually within 5–15 min). A complete growth medium was added (6.0–8.0 ml), and cells were aspirated by gentle pipetting. The cell pellet was suspended with the recommended complete medium and dispensed into a 75 cm^2 culture flask. The culture vessel containing the complete growth medium was placed in the incubator for 24 h to at 37 °C. The cells were treated with different concentrations (0.39, 1.60, 6.25, 25, and 100 μg/ml) of each of the test compounds or doxorubicin, […], then the plates were examined under the inverted microscope and finally the MTT assay was carried out.
(§2) Anti-cancer activity of the newly synthesised compounds was evaluated in vitro against both T-24 and PC-3 cell lines according to the MTT method. Cells were seeded into 96-well plates (flat bottom) at a density of 10 000 cells/well for 24 h. The vial of MTT to be used was reconstituted with 3 ml of medium or balanced salt solution without phenol red and serum. then, a reconstituted MTT vial was added in an amount equal to 10% of the culture medium volume. Cultures were incubated for 2–4 h depending on the cell type and maximum cell density and removed from the incubator and the formazan crystals were dissolved via the addition of an amount of MTT solubilisation solution (M-8910) equal to the original culture medium volume. ROBONIK P2000 spectrophotometer at a wavelength of 570 nm was used to measure the colour intensity spectrophotometrically. The survival curve of both T-24 and PC-3 cells was obtained by plotting the percentage of surviving cells against the drug after each compound. The IC50 value for each test compound and the reference drug doxorubicin was calculated.
(§3) In this study, all the newly synthesised CP derivatives were subjected to anticancer activity evaluation against bladder (T-24) and prostate cancer (PC-3) cell lines. The compounds were evaluated for their activity using 5 doses determinations (100 μg/ml, 25 μg/ml, 6.25 μg/ml, 1.60 μg/ml, and 0.39 μg/ml). Their half-maximal inhibitory concentration (IC50) values were measured. Doxorubicin was chosen as a reference anticancer drug[65].

In data set [2] the test system is human prostate carcinoma (PC-3) cell line. The experiment in a line: MTT cell viability assay, PC-3 cells. In kind it is cell-based. Conditions: prostate cancer cell line PC-3, treatment for 24 h (table title), means of three experiments, read-out: IC50 (μM* ± SD) PC-3. How it is done: as §1, §2, §3

Compound `COc1ccc(NC(=S)NNC(=O)CN2CCN(c3cc4c(cc3F)c(=O)c(C(=O)O)cn4C3CC3)CC2)cc1` [Compound 9c, 1-Cyclopropyl-6-fluoro-7-(4-(2-(2-((4-methoxyphenyl)carbamo-thioyl)hydrazinyl)-2-oxoethyl)piperazin-1-yl)-4-oxo-1,4-dihydroquinoline-3-carboxylic acid] returned a melting point of 238 to 240 °C. In addition, in data set [1], the IC50 turned out to be 134 ± 7.23 µM. Besides, the half-maximal inhibitory concentration (IC50) in data set [2] came to 4.85 ± 0.27 µM.

The compound `O=C(CN1CCN(c2cc3c(cc2F)c(=O)c(C(=O)O)cn3C2CC2)CC1)NNCC(=O)c1ccccc1` [Compound 10a, 1-Cyclopropyl-6-fluoro-4-oxo-7-(4-(2-oxo-2-(2-(2-oxo-2-phenyl-ethyl)hydrazinyl)ethyl)piperazin-1-yl)-1,4-dihydroquinoline-3-carboxylic acid] returned a melting point of 183 to 185 °C. Also, the IC50 in data set [1] was found to be 45.4 ± 2.45 µM. Moreover, the IC50 in data set [2] turned out to be 74.3 ± 3.78 µM.

Compound `O=C(CN1CCN(c2cc3c(cc2F)c(=O)c(C(=O)O)cn3C2CC2)CC1)NNCC(=O)c1cccc(Br)c1` [Compound 10b, 7-(4-(2-(2-(2-(3-Bromophenyl)-2-oxoethyl)hydrazinyl)-2-oxo-ethyl)piperazin-1-yl)-1-cyclopropyl-6-fluoro-4-oxo-1,4-dihydroquinoline-3-carboxylic acid] returned a melting point of 210 to 215 °C. In data set [1], the IC50 was determined as 17.2 ± 0.93 µM. In addition, in data set [2], the IC50 stood at 3.38 ± 0.18 µM.

As to `Cc1cccc(Cl)c1NC(=O)NNC(=O)CN1CCN(c2cc3c(cc2F)c(=O)c(C(=O)O)cn3C2CC2)CC1` [Compound 9b, 7-(4-(2-(2-((2-Chloro-6-methylphenyl)carbamoyl)hydrazinyl)-2-oxoethyl)piperazin-1-yl)-1-cyclopropyl-6-fluoro-4-oxo-1,4-dihydro-quinoline-3-carboxylic acid], the melting point was in the range of 285 to 287 °C. Also, in data set [1], the IC50 worked out at 28.6 ± 1.54 µM. For the same compound, the IC50 in data set [2] was 19.3 ± 0.98 µM.

`NC(=S)NNC(=O)CN1CCN(c2cc3c(cc2F)c(=O)c(C(=O)O)cn3C2CC2)CC1` [Compound 13, 7-(4-(2-(2-carbamothioylhydrazinyl)-2-oxoethyl)piperazin-1-yl)-1-cyclopropyl-6-fluoro-4-oxo-1,4-dihydroquinoline-3-carboxylic acid] showed a melting point of 188 to 200 °C. Also, the half-inhibitory concentration (IC50) in data set [1] was 34.5 ± 1.86 µM. The IC50 in data set [2] is 30.5 ± 1.56 µM.

For `O=C(CN1CCN(c2cc3c(cc2F)c(=O)c(C(=O)O)cn3C2CC2)CC1)NN1C(=O)CCC1=O` [Compound 11, 1-cyclopropyl-7-(4-(2-((2,5-dioxopyrrolidin-1-yl)amino)-2-oxoethyl)piperazin-1-yl)-6-fluoro-4-oxo-1,4-dihydroquinoline-3-carboxylic acid], the melting point fell in the range of 184 to 186 °C. The IC50 in data set [1] came out at 68.5 ± 3.69 µM. Besides, the IC50 in data set [2] turned out to be 82.2 ± 4.18 µM.

`CC1=NN(C(=O)CN2CCN(c3cc4c(cc3F)c(=O)c(C(=O)O)cn4C3CC3)CC2)C(=O)C1` [Compound 3, 1-cyclopropyl-6-fluoro-7-(4-(2-(3-methyl-5-oxo-4,5-dihydro-1H-pyrazol-1-yl)-2-oxoethyl)piperazin-1-yl)-4-oxo-1,4-dihydroquinoline-3-carboxylic acid]: the melting point was 188 to 190 °C. Besides, the IC50 in data set [1] was determined as 37.3 ± 2.02 µM. In data set [2], the IC50 came to 98.2 ± 5 µM.

`O=C(CN1CCN(c2cc3c(cc2F)c(=O)c(C(=O)O)cn3C2CC2)CC1)NN=C1NC(=O)CS1` [Compound 14, 1-cyclopropyl-6-fluoro-4-oxo-7-(4-(2-oxo-2-(2-(4-oxothiazolidin-2-ylidene)hydrazinyl)ethyl)piperazin-1-yl)-1,4-dihydroquinoline-3-carboxylic acid]: the melting point lay in the range of 240 to 242 °C. In addition, the IC50 in data set [1] amounted to 19.5 ± 0.58 µM. The IC50 in data set [2] was found to be 6.49 ± 0.24 µM.

As to `CC(=NNC(=O)CN1CCN(c2cc3c(cc2F)c(=O)c(C(=O)O)cn3C2CC2)CC1)c1cccs1` [Compound 7e, 1-Cyclopropyl-6-fluoro-4-oxo-7-(4-(2-oxo-2-(2-(1-(thiophen-2-yl)ethylidene)hydrazinyl)ethyl)piperazin-1-yl)-1,4-dihydroquinoline-3-carboxylic acid], the melting point is 245 to 247 °C. Besides, the IC50 in data set [1] was 25 ± 0.2 µM. The IC50 in data set [2] was found to be 50.5 ± 10.4 µM.

As to `CC(=NNC(=O)CN1CCN(c2cc3c(cc2F)c(=O)c(C(=O)O)cn3C2CC2)CC1)c1ccccc1O` [Compound 7d, 1-Cyclopropyl-6-fluoro-7-(4-(2-(2-(1-(2-hydroxyphenyl)ethylidene)hydrazinyl)-2-oxoethyl)piperazin-1-yl)-4-oxo-1,4-dihydroquinoline-3-carboxylic acid], the melting point lay within 166 to 168 °C. The half-maximal inhibitory concentration (IC50) in data set [1] was 88 ± 4.75 µM. Moreover, the IC50 in data set [2] was determined as 8.81 ± 0.44 µM.

In turn, `CC(=NNC(=O)CN1CCN(c2cc3c(cc2F)c(=O)c(C(=O)O)cn3C2CC2)CC1)c1ccc(Cl)s1` [Compound 7f, 7-(4-(2-(2-(1-(5-Chlorothiophen-2-yl)ethylidene)hydrazinyl)-2-oxoethyl)piperazin-1-yl)-1-cyclopropyl-6-fluoro-4-oxo-1,4-dihydro-quinoline-3-carboxylic acid] yielded a melting point of 286 to 288 °C. For the same compound, the IC50 in data set [1] was determined as 124 ± 6.7 µM. The IC50 in data set [2] was 136 ± 6.94 µM.

In turn, `O=C(CN1CCN(c2cc3c(cc2F)c(=O)c(C(=O)O)cn3C2CC2)CC1)NN=C1C(=O)Nc2cccc(Br)c21` [Compound 8b, 7-(4-(2-(2-(4-Bromo-2-oxoindolin-3-ylidene)hydrazinyl)-2-oxoethyl)piperazin-1-yl)-1-cyclopropyl-6-fluoro-4-oxo-1,4-dihydro-quinoline-3-carboxylic acid] registered a melting point of 263 to 265 °C. Also, the IC50 in data set [1] was 336 ± 18.1 µM. Moreover, in data set [2], the IC50 came out at 41.1 ± 2.09 µM.

For `O=C(CN1CCN(c2cc3c(cc2F)c(=O)c(C(=O)O)cn3C2CC2)CC1)NN=c1[nH]c(-c2ccccc2)cs1` [Compound 15, 1-cyclopropyl-6-fluoro-4-oxo-7-(4-(2-oxo-2-(2-(4-phenylthiazol-2(3H)-ylidene)hydrazinyl)ethyl)piperazin-1-yl)-1,4-dihydroquinoline-3-carboxylic acid], the melting point was 256 to 258 °C. In addition, the IC50 in data set [1] worked out at 15.9 ± 0.87 µM. Besides, the IC50 in data set [2] stood at 7.54 ± 0.39 µM.

For `Cc1cc(C)n(C(=O)CN2CCN(c3cc4c(cc3F)c(=O)c(C(=O)O)cn4C3CC3)CC2)n1` [Compound 5, 1-cyclopropyl-7-(4-(2-(3,5-dimethyl-1H-pyrazol-1-yl)-2-oxoethyl)piperazin-1-yl)-6-fluoro-4-oxo-1,4-dihydro-quinoline-3-carboxylic acid], the IC50 amounted to 25.9 ± 1.39 µM in data set [1] and 24.9 ± 1.26 µM in data set [2].

In turn, `O=C(CN1CCN(c2cc3c(cc2F)c(=O)c(C(=O)O)cn3C2CC2)CC1)NN1C(=O)c2ccccc2C1=O` [Compound 12, 1-cyclopropyl-7-(4-(2-((1,3-dioxoisoindolin-2-yl)amino)-2-oxoethyl)piperazin-1-yl)-6-fluoro-4-oxo-1,4-dihydroquinoline-3-carboxylic acid] gave a melting point of 190 to 192 °C. Also, the 50% inhibitory concentration (IC50) in data set [1] was determined as 47 ± 1.09 µM. Also, the IC50 in data set [2] was 126 ± 6.39 µM.

Turning to `CC(=NNC(=O)CN1CCN(c2cc3c(cc2F)c(=O)c(C(=O)O)cn3C2CC2)CC1)c1ccc(N)cc1` [Compound 7c, 7-(4-(2-(2-(1-(4-Aminophenyl)ethylidene)hydrazinyl)-2-oxoethyl)-piperazin-1-yl)-1-cyclopropyl-6-fluoro-4-oxo-1,4-dihydroquinoline-3-carboxylic acid], the melting point fell in the range of 173 to 175 °C. Further, in data set [1], the IC50 is 25.6 ± 0.71 µM. Besides, the IC50 in data set [2] came to 32.8 ± 0.86 µM.

Consider `N=C1CC(=O)NN1C(=O)CN1CCN(c2cc3c(cc2F)c(=O)c(C(=O)O)cn3C2CC2)CC1` [Compound 4, 1-cyclopropyl-6-fluoro-7-(4-(2-(5-imino-3-oxopyrazolidin-1-yl)-2-oxoethyl)piperazin-1-yl)-4-oxo-1,4-dihydroquinoline-3-carboxylic acid], for which the melting point was 181 to 183 °C. Further, the IC50 in data set [1] was found to be 25.5 ± 1.38 µM. Also, in data set [2], the IC50 came out at 29.9 ± 1.53 µM.
